These results are taken from patent US20250186321A1, “FORMULATION USING AMINO ACID AND CARBOXYLIC ACID, ORGANIC SALT, AND COMPOSITION COMPRISING SAME AND USE THEREOF” (MIYOSHI OIL & FAT CO., LTD., priority 2021, published 2025).

This series in a line: Appearance of formulation (state at 25° C.). It is filed as physicochemical. Particulars: 25° C.; components (A) and (B) at the compounding molar ratio shown. Here is the method: Formulations 1 to 427 shown in Tables 1A to 1D were prepared by the above-described method using the components (A) and (B) at the compounding molar ratios shown in the tables, and their states at 25° C. were observed.
`NCC(=O)O.O=C1O[C@H]([C@H](O)CO)C(O)=C1O` [Formulation 146]: the “state at 25° C.” value is given as “Solid”. Consider `C[C@H](N)C(=O)O.O=CO` [Formulation 147], for which the “state at 25° C.” value is “Solid”. For `CC(=O)O.C[C@H](N)C(=O)O` [Formulation 148] the value was “Solid”; for `CCC(=O)O.C[C@H](N)C(=O)O` [Formulation 149], “Solid”; for `CCCCCC(=O)O.C[C@H](N)C(=O)O` [Formulation 150], “Solid”. The value for `CCCC(=O)O.C[C@H](N)C(=O)O` [Formulation 151] was “Solid”. For `CCCCCCCC/C=C\CCCCCCCC(=O)O.C[C@H](N)C(=O)O` [Formulation 153], the “state at 25° C.” value is on record as “Solid”. The value for `CCCCC/C=C\C/C=C\CCCCCCCC(=O)O.C[C@H](N)C(=O)O` [Formulation 154] was “Solid”.

`C[C@H](N)C(=O)O.O=C(O)C(O)C(O)C(O)C(O)CO` (stereo not shown) [Formulation 155]: the “state at 25° C.” value is given as “Solid”. The value for `CC(O)C(=O)O.C[C@H](N)C(=O)O` (stereo not shown) [Formulation 156] was “Solid”; that for `C[C@H](N)C(=O)O.O=C(O)CCCCC(=O)O` [Formulation 157] was “Solid”; that for `C[C@H](N)C(=O)O.O=C(O)CCC(=O)O` [Formulation 158] was “Solid”.

For the compound `C[C@H](N)C(=O)O.N[C@@H](CCC(=O)O)C(=O)O` [Formulation 159], the “state at 25° C.” value is “Solid”.

Take `C[C@H](N)C(=O)O.O=C(O)/C=C/C(=O)O` [Formulation 160]: the “state at 25° C.” value was “Solid”. With `C[C@H](N)C(=O)O.O=C(O)C[C@H](O)C(=O)O` [Formulation 161], the “state at 25° C.” value is “Solid”.

In the case of `C[C@H](N)C(=O)O.O=C(O)CC(O)(CC(=O)O)C(=O)O` [Formulation 162], the “state at 25° C.” value is listed as “Solid”. For `C[C@H](N)C(=O)O.O=C(O)C(O)C(O)C(=O)O` (stereo not shown) [Formulation 163] the value was “Solid”; for `C[C@H](N)C(=O)O.O=C(O)c1ccccc1` [Formulation 164], “Solid”. As for `C[C@H](N)C(=O)O.O=C1O[C@H]([C@@H](O)CO)C(O)=C1O` [Formulation 165], the “state at 25° C.” value is listed as “Solid”. In the case of `C[C@H](N)C(=O)O.O=C1O[C@H]([C@H](O)CO)C(O)=C1O` [Formulation 166], the “state at 25° C.” value was “Solid”. For `NCCCC(=O)O.O=CO` [Formulation 167] the value was “Solid”. As to `CC(=O)O.NCCCC(=O)O` [Formulation 168], the “state at 25° C.” value is on record as “Solid”. The value for `CCC(=O)O.NCCCC(=O)O` [Formulation 169] was “Solid”; that for `CCCCCC(=O)O.NCCCC(=O)O` [Formulation 170] was “Solid”. `CCCC(=O)O.NCCCC(=O)O` [Formulation 171]: the “state at 25° C.” value is given as “Solid”. For `CCCCC/C=C\C/C=C\CCCCCCCC(=O)O.NCCCC(=O)O` [Formulation 174] the value was “Solid”; for `NCCCC(=O)O.O=C(O)CCCCC(=O)O` [Formulation 177], “Solid”. The value for `NCCCC(=O)O.O=C(O)CCC(=O)O` [Formulation 178] was “Solid”. With `NCCCC(=O)O.N[C@@H](CCC(=O)O)C(=O)O` [Formulation 179], the “state at 25° C.” value is recorded as “Solid”. For the compound `NCCCC(=O)O.O=C(O)/C=C/C(=O)O` [Formulation 180], the “state at 25° C.” value is given as “Solid”. As for `NCCCC(=O)O.O=C(O)C[C@H](O)C(=O)O` [Formulation 181], the “state at 25° C.” value is listed as “Solid”.

Regarding `NCCCC(=O)O.O=C(O)C(O)C(O)C(=O)O` (stereo not shown) [Formulation 183], the “state at 25° C.” value is listed as “Solid”. The value for `NCCCC(=O)O.O=C(O)c1ccccc1` [Formulation 184] was “Solid”; that for `NCCCC(=O)O.O=C1O[C@H]([C@@H](O)CO)C(O)=C1O` [Formulation 185] was “Solid”.
